Data on seven compounds can be found in patent US20250340591A1, “COMPOSITION FOR PREVENTING OR TREATING INFLAMMATORY BOWEL DISEASE CONTAINING NOVEL COMPOUND” (ANYGEN CO., LTD., priority 2021, published 2025).

Square brackets hold non-standard residues; d marks the D form. Peptide text beside a SMILES is read from it. * marks the point of attachment. Tyr(3,5-(NO2)2) = N[C@@H](Cc1cc([N+](=O)[O-])c(O)c([N+](=O)[O-])c1)C(=O)O; His(Trt) = N[C@@H](Cc1cn(C(c2ccccc2)(c2ccccc2)c2ccccc2)cn1)C(=O)O; His(τ-CHPh2) = N[C@@H](Cc1cn(C(c2ccccc2)c2ccccc2)cn1)C(=O)O; His(τ-Bzl) = N[C@@H](Cc1cn(Cc2ccccc2)cn1)C(=O)O; dPhe(4-Me) = Cc1ccc(C[C@@H](N)C(=O)O)cc1; Decanoyl = CCCCCCCCCC(=O)*; Octanoyl = CCCCCCCC(=O)*

The target in the first series is T1, GPR39 (Homo sapiens, UniProt O43194).
T1 sequence (O43194 1-453): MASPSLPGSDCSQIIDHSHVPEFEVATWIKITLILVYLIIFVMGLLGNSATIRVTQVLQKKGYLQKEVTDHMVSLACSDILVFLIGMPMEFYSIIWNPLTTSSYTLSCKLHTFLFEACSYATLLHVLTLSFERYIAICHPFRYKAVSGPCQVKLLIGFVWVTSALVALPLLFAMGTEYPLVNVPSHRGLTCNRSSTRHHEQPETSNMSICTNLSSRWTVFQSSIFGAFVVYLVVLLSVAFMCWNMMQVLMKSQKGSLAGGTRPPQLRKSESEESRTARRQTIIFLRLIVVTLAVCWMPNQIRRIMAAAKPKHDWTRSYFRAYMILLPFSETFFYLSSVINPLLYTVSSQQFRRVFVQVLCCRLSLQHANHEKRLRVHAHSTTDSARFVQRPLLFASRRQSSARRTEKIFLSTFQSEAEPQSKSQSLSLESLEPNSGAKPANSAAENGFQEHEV
Nature of the series: luciferase assay system (SRE luciferase reporter gene, CV-1 cells expressing GPR39). Type of series: cell-based. Also noted: expressed in transfected cells; host or cells: CV-1 fibroblast cell line (Korea Cell Line Bank), adenoviral transduction at 50 MOI.
Conditions: not given
Background: Reporter assays use an easily measured gene product as a stand-in for the process of interest.
For `CCCCCCCC(=O)NCCCC[C@H](NC(=O)[C@@H](N)Cc1cn(Cc2ccccc2)cn1)C(=O)N[C@@H](Cc1ccccc1)C(=O)N[C@@H](Cc1ccc(O)cc1)C(=O)O` [HKFY-3, N2-(Nt-benzyl-L-histidyl)-N6-octanoyl-L-lysyl-L-phenylalanyl-L-tyrosine] (H-[His(τ-Bzl)]K(Octanoyl)FY-OH), the “ECmax (−fold induction over basal)” value is given as 9.2 ± 2.58 fold induction over basal. Regarding `CCCCCCCC(=O)NCCCC[C@H](NC(=O)[C@H](Cc1cn(C(c2ccccc2)(c2ccccc2)c2ccccc2)cn1)NC(=O)[C@H](CO)NC(=O)CN)C(=O)N[C@@H](Cc1ccccc1)C(=O)N[C@@H](Cc1ccc(O)cc1)C(=O)O` [HKFY-37, N2-(Na-glycyl-L-seryl-Nt-trityl-L-histidyl)-N6-octanoyl-L-lysyl-L-phenylalanyl-L-tyrosine] (H-GS[His(Trt)]K(Octanoyl)FY-OH), the “ECmax (−fold induction over basal)” value amounted to 16 ± 1.7 fold induction over basal. Turning to `CCCCCCCC(=O)NCCCC[C@H](NC(=O)[C@@H](N)Cc1cn(C(c2ccccc2)(c2ccccc2)c2ccccc2)cn1)C(=O)N[C@@H](Cc1ccc(O)cc1)C(=O)N[C@@H](Cc1ccc(O)cc1)C(=O)O` [HKFY-48, N6-octanoyl-N2-(Nt-trityl-L-histidyl)-L-lysyl-L-tyrosyl-L-tyrosine] (H-[His(Trt)]K(Octanoyl)YY-OH), the “ECmax (−fold induction over basal)” value was 14.4 ± 2.7 fold induction over basal. As for `CCCCCCCC(=O)NCCCC[C@H](NC(=O)[C@@H](N)Cc1cn([C@H](c2ccccc2)c2ccc(C)cc2)cn1)C(=O)N[C@@H](Cc1ccccc1)C(=O)N[C@@H](Cc1ccc(O)cc1)C(=O)O` [HKFY-22, N6-octanoyl-N2-(Nt-((R)-phenyl(p-tolyl)methyl)-L-histidyl)-L-lysyl-L-phenylalanyl-L-tyrosine], the “ECmax (−fold induction over basal)” value came out at 21.3 ± 1.8 fold induction over basal. `C[C@H](NC(=O)[C@H](CCC(N)=O)NC(=O)[C@H](CCC(N)=O)NC(=O)[C@H](CC(=O)O)NC(=O)[C@H](Cc1ccc(O)cc1)NC(=O)[C@H](Cc1ccccc1)NC(=O)[C@@H](N)Cc1cn(C(c2ccccc2)(c2ccccc2)c2ccccc2)cn1)C(=O)N[C@@H](CCCNC(=N)N)C(=O)N[C@@H](Cc1ccccc1)C(N)=O` [HKFY-52, (6S,9S,12S,15S,18S)-1-amino-6-(((S)-1-amino-1-oxo-3-phenylpropan-2-yl)carbamoyl)-18-((S)-2-((S)-2-((S)-2-amino-3-(1-trityl-1H-imidazol-4-yl)propanamido)-3-phenylpropanamido)-3-(4-hydroxyphenyl)propanamido)-12,15-bis(3-amino-3-oxopropyl)-1-imino-9-methyl-8,11,14,17-tetraoxo-2,7,10,13,16-pentaazaicosan-20-oic acid] (H-[His(Trt)]FYDQQARF-NH2): the “ECmax (−fold induction over basal)” value was 15.5 ± 2.2 fold induction over basal. Consider `CCCCCCCCCC(=O)NCCCC[C@H](NC(=O)[C@@H](N)Cc1cn(C(c2ccccc2)(c2ccccc2)c2ccccc2)cn1)C(=O)N[C@@H](Cc1ccccc1)C(=O)N[C@@H](Cc1ccc(O)cc1)C(=O)O` [HKFY-24, N6-decanoyl-N2-(Nt-trityl-L-histidyl)-L-lysyl-L-phenylalanyl-L-tyrosine] (H-[His(Trt)]K(Decanoyl)FY-OH), for which the “ECmax (−fold induction over basal)” value stood at 7.03 ± 0.57 fold induction over basal.

The same series, now with this note: CV-1 cells, GPR39 and SRE luciferase adenovirus, 6 hours treatment.
With `CCCCCCCC(=O)NCCCC[C@H](NC(=O)[C@@H](N)Cc1cn(C(c2ccccc2)c2ccccc2)cn1)C(=O)N[C@H](Cc1ccc(C)cc1)C(=O)N[C@@H](Cc1cc([N+](=O)[O-])c(O)c([N+](=O)[O-])c1)C(=O)O` [HKFY-69, (S)-2-((R)-2-((S)-2-((S)-2-amino-3-(1-benzhydryl-1H-imidazol-4-yl)propanamido)-6-octanamidohexanamido)-3-(p-tolyl)propanamido)-3-(4-hydroxy-3,5-dinitrophenyl)propanoic acid] (H-[His(τ-CHPh2)]K(Octanoyl)[dPhe(4-Me)][Tyr(3,5-(NO2)2)]-OH), the “ECmax (−fold induction over basal)” value was determined as 12.2 ± 2.5 fold induction over basal.
